In series [1] the test system is Human monocytes (CD14+ cells). Nature of the series: In vitro cell migration (trans-well chemotaxis) assay of human monocytes. The class given is cell-based. The settings on record: for reduction of monocyte chemotaxis towards MCP-1 and RANTES (50 ng/ml each): 30 min pre-incubation, PC 5 μg/ml, partially oxidized PAPC 40 μg/ml, PGPC 5 μg/ml, VB-201 5 μg/ml. As to the method:
Following incubation, cells were loaded to the upper chamber and allowed to migrate for 3.5 hours towards 0.5% fetal bovine serum/RPMI-1640 medium supplemented with recombinant human MCP-1 and RANTES (50 ng/ml each).
In order to further ascertain the significance of ERK1/2 phosphorylation and MEK1/2 phosphorylation to monocyte chemotaxis, the effect of the RAF inhibitor GW5074, which reduces MEK and ERK phosphorylation, on monocyte chemotaxis was determined in a trans-well migration assay using a combination of MCP-1 ([…]) and RANTES (70 ng/ml) as attractant. Monocytes were pre-treated with 5 μM GW5074 for 30 minutes prior to seeding in the migration chamber.
For this purpose, monocytes from healthy donors were pre-incubated for 30 min with either solvent (0.005% ethanol/PBS), phosphatidylcholine (PC; 5 μg/ml), partially oxidized PAPC (24 h oxidation; 40 μg/ml) or PGPC (5 μg/ml), and allowed to migrate towards recombinant human MCP-1 (CCL2; ligand for CCR2) and RANTES (CCL5; ligand for CCR1, CCR3, CCR5, US28) as attractants (50 ng/ml each). […]

For the next series, the system named is THP-1 cells. Nature of the series: Trans-well chemotaxis assay of THP-1 cells. The settings on record: Wortmannin 1 μmol/L, Rapamycin 1.1 μmol/L, GW5074 1 μmol/L. The class given is cell-based, human.
The target in another series is T1, TLR4 (Mus musculus, UniProt Q9QUK6).
T1 sequence (Q9QUK6 26-835): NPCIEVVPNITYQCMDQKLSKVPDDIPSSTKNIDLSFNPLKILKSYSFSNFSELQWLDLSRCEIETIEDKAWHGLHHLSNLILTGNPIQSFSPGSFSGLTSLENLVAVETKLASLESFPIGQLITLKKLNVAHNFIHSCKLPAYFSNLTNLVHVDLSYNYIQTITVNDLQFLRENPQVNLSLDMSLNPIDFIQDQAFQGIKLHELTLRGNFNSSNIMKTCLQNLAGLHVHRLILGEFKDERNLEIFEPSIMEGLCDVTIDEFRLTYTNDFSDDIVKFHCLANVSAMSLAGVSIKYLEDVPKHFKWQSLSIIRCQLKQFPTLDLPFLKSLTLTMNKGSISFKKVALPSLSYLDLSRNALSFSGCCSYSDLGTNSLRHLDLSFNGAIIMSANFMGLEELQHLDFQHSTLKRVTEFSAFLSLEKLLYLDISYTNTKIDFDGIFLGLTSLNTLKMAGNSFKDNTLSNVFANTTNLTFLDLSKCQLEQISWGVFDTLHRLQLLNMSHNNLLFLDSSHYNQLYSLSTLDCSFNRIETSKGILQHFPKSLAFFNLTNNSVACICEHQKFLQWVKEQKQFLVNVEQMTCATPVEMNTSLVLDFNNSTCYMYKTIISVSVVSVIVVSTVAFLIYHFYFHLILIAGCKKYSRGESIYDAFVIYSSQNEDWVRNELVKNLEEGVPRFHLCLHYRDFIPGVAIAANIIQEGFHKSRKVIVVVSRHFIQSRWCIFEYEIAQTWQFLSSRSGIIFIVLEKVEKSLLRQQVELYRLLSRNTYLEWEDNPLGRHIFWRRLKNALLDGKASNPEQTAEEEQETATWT
T1 sequence (Q9JHF9 19-160 partner): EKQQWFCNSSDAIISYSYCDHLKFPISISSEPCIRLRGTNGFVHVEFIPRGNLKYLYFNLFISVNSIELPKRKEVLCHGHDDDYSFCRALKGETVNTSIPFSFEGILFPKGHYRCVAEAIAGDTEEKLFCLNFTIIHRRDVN
The note with it: RAW 264.7 murine macrophages.

The test system of a further series is human monocytes. Nature of the series: ROS formation in human monocytes (DCF, FACS). The class given is cell-based. The settings on record: overnight; VB-201 10 μg/ml, PGPC 10 μg/ml, OxPAPC 100 μg/ml; relative to PBS. How it is done:
Detection of ROS was performed through FACS quantification of the oxidation product dichlorodihydrofluorescein (DCF). Data are mean±SD from 3-4 experiments performed in duplicates. FIG. 23B is a histogram from a representative experiment showing DCF levels in treated cells.

Protocol for THP-1 cells: For chemo-attraction of monocytes, RANTES (100 ng/ml), MIP-1α (50 ng/ml) or MCP-1 (50 ng/ml) were dissolved in 0.5% fetal bovine serum(FBS)/RPMI-1640 medium and placed at the lower chamber of QCM™ 24-well migration assay plate (Corning-Costar; 5 μm pores). For chemo-attraction of CD4+ cells, 0.5% FBS/RPMI-1640 solution containing RANTES (100 ng/ml) and SDF-1α (50 ng/ml) was used, using the same plate setting. Migration assay was conducted by seeding 300,000 treated cells in the upper chamber, followed by incubation of 3-4 hours. Subsequently, the number of cells which migrated to the medium in the lower compartment was determined by FACS.
Data are mean f SD from 4 experiments in triplicates, normalized to untreated cells. **, p<0.001.
Protocol for TLR4: Cells were washed and re-suspended in lysis buffer containing 1:100 dithiothreitol (DTT) (Bio-Lab), and phosphatase and protease inhibitors (Thermo Scientific). Samples were loaded on a precasted Criterion TGX gel (BIO-RAD, UK) and transferred onto nitrocellulose membrane. Blots were blocked with 5% milk or bovine serum albumin (BSA) in TBST (Tris buffer saline with TWEEN 20) for 1 hour, followed by incubation with primary and secondary antibodies. Membranes were developed using the ECL kit (Thermo Scientific).
Toll-like receptors were activated in mouse BMDCs (bone marrow dendritic cells) by specific agonists, and the effect of receptor activation was determined via Western blot for phosphorylation of p38 MAP kinase, which is downstream of TLRs.

“phosphatidylcholine [PC, reference compound]”: the “reduction of monocyte chemotaxis towards MCP-1 and RANTES (50 ng/ml each)” value in series [1] was “did not reduce the number of migrating cells”.
As to `O=C1Nc2ccc(I)cc2C1=Cc1cc(Br)c(O)c(Br)c1` [GW5074, 3-(3,5-dibromo-4-hydroxy-benzylidene)-5-iodo-1,3-dihydro-indol-2-one, reference compound], the “chemotaxis of THP-1 cells in vitro” value with THP-1 cells is “decrease chemotaxis of THP-1 cells”. In addition, the “reduction of monocyte migration” value in series [1] (5 μM GW5074, 30 minutes, MCP-1 (50 ng/nl) and RANTES (70 ng/ml)) is “about 80%”.
Turning to `CCCCCCCCOC[C@H](COP(=O)([O-])OCC[N+](C)(C)C)OCCCCC(=O)O` [VB-207, (R)-1-octyl-2-(4′-carboxyl)butyl-sn-glycero-3-phosphocholine], the LPS-induced signaling entry at TLR4 is reported as “neither VB-207 nor OB-VB207 exhibited such an inhibitory effect”.
In the case of `CCCCCCCCCCCCCCCC(=O)OCC(COP(=O)([O-])OCC[N+](C)(C)C)OC(=O)CCCC(=O)O` (stereo not drawn) [PGPC, 1-palmitoyl-2-glutaryl-phosphatidylcholine, reference compound], in series [1], the “reduction of monocyte chemotaxis towards MCP-1 and RANTES (50 ng/ml each)” value is on record as about 50%. In addition, the “ROS formation in human monocytes” value in the series on human monocytes is listed as “no effect on ROS formation”.

These data come from US20150320773A1, “TREATMENT OF INFLAMMATION” (Vascular Biogenics Ltd., priority 2011, published 2015).
